Results as given in PMC11931445, “A Novel Compound QO‐83 Alleviates Acute and Chronic Epileptic Seizures in Rodents by Modulating KV7 Channel Activity” (CNS Neuroscience & Therapeutics, 2025).

Columns and labels:
PTZ-induced seizures = assay: Metrazol maximal seizure (MMS) model; type: in vivo, C57BL/6J mice; details: 15 mg/kg
Experimental: For this experimental phase, male C57BL/6J mice weighing between 18 g and 25 g were randomly assigned to four groups based on their body weight. The QO‐83 group was divided into two subgroups, one receiving a dosage of 1 mg/kg (i.p.) and the other receiving a dosage of 3 mg/kg (i.p.).
PTZ (85 mg/kg, 0.1 mL per 10 g) was administered subcutaneously at the nape of the neck. Subsequently, mice were promptly placed in individual transparent observation chambers under quiet conditions. A stopwatch was utilized to measure seizure latency, defined as the time from PTZ injection to the onset of a generalized systemic clonic seizure and loss of the […]. The number of animals experiencing seizures was manually recorded.

KV7.2 = molecular target: T1, KV7.2 (Homo sapiens, UniProt O43526); assay: Manual patch clamp, KV7 currents; type: cell-based; details: KV7.2
T1 construct: expressed in transfected cells
Experimental: (§1) Pipettes (1–6 MΩ) were filled with a solution of KCl (145 mM), MgCl2 (1 mM), HEPES (10 mM), and EDTA (5 mM). The pH was adjusted to 7.2 with NaOH. Electrophysiological measurements were obtained using an AXON Multiclamp 700 B patch‐clamp amplifier. The bath solution contained NaCl (144 mM), KCl (5 mM), MgCl2 (1 mM), CaCl2 (2 mM), and D‐glucose (10 mM), with the pH adjusted to 7.4 using NaOH. The protocol involved an increase in voltage from −120 mV to 40 mV in increments of 10 mV to evoke a series of KV7 currents (1000 ms per pulse) in the bath solution. For details on cell culture, please see Appendix S1 2.2.1.
(§2) Statistical differences between multiple groups (mean ± SEM) were compared using one‐ or two‐way ANOVA. Electrophysiological data were analyzed using SPSS version 21 and OriginPro (version 9.1.0). P Peak inward currents obtained from activation protocols were calculated using the following equation: G = I/(Vm‐EK), where G is conductance, I is peak inward current, Vm is instantaneous membrane potential, and EK is equilibrium potential for the […] channel. Conductance data were normalized using maximum conductance and further fitted to the Boltzmann equation: G=Gmax+Gmin−Gmax/1+expVm−V1/2/k , where G is conductance, V1/2 is midpoint of activation, and k is slope factor. The “Spectrum” module of LabChart was used for data analysis of EEG signals, including the calculation of power density and averaging power spectral density (PSD).
(§3) Stable Chinese Hamster Ovary (CHO) cell lines expressing specific Kv7 channel subtypes, including KV7.2 and KV7.2/7.3, were cultured in Minimum Essential Medium (MEM) supplemented with 10% fetal calf serum, 1× nonessential amino acids, […], and […] hygromycin B. Concurrently, KV7.4 and KV7.5 channels were stably expressed in Human Embryonic Kidney 293A (HEK293A) cell lines and nurtured in Dulbecco's Modified Eagle Medium (DMEM) high glucose medium supplemented with 10% fetal bovine serum (FBS), […], and […] hygromycin B.

KV7.4 = molecular target: T2, KV7.4 (Homo sapiens, UniProt P56696); assay: Manual patch clamp, KV7 currents; type: cell-based
T2 construct: expressed in transfected cells
Experimental: as §1, §2, §3

KV7.5 = molecular target: T3, KV7.5 (Homo sapiens, UniProt Q9NR82); assay: Manual patch clamp, KV7 currents; type: cell-based
T3 construct: expressed in transfected cells
Experimental: as §1, §2, §3

[1] = test system: pilocarpine-induced seizures; assay: Pilocarpine-induced status epilepticus model with EEG; type: in vivo, Sprague–Dawley (SD) rats; details: for effect on EEG power spectral density: pilocarpine-treated rats
From the text: For animal experiments, we used adult male Sprague–Dawley (SD) rats weighing between 240 and 260 g. Isoflurane anesthesia was used for all operations. Rats were secured in a stereotaxic frame, and the anterior fontanelle was marked 3 mm posteriorly. Additionally, marks were made approximately 3 mm lateral to the midline on both sides to indicate the insertion points for the positive and negative electrodes. A ground electrode was placed subcutaneously in the occipital lobe to eliminate recording noise. Postoperatively, each animal was housed separately in a single cage and provided food and water ad libitum. After a 3‐day adaptation period, electroencephalograms (EEG) were recorded.
The experimental procedure commenced with an intraperitoneal injection of lithium chloride (127 mg/kg). After 24 h, subcutaneous scopolamine methyl nitrate (1 mg/kg) was administered. […] Twenty minutes later, status epilepticus (SE) was induced by administering pilocarpine (100 mg/kg, i.p.). SE was terminated 2 h later by administering 10% chloral hydrate.
The Pilo group, 2 mg/kg XE991 group, and 2 mg/kg XE991 + 1 mg/kg QO‐83 group received an intraperitoneal injection of lithium chloride (127 mg/kg) 24 h prior to testing. Following this, scopolamine methyl nitrate (1 mg/kg) was administered […], and after 10 min, each group was treated with 25% beta‐cyclodextrin, 2 mg/kg XE991, or 2 mg/kg XE991, respectively. After 15 min, 25% beta‐cyclodextrin, 25% beta‐cyclodextrin, or 1 mg/kg QO‐83 was administered. Finally, 25 min later, pilocarpine (100 mg/kg, i.p.) was administered to induce seizures.
Seizure severity was assessed using a standardized scale ranging from 1 to 5, adapted from previous research criteria. Stage 1 encompasses mouth and facial movements, including wet dog shakes. Stage 2 involves head nodding. Stage 3 is characterized by unilateral forelimb clonus. […] Finally, stage 5 manifests as clonus of all limbs accompanied by falling.

## CCOC(=O)Nc1ccc(NCc2ccc(F)cc2)cc1N [RTG, retigabine]
PTZ-induced seizures
  seizure protection rate: 40%
KV7.2; 10.00 μM
  activation curve V1/2: -32.23 ± 1.89 mV
KV7.2; 10 μM, Mean ± SE
  Activation τ (10 mV): 259.60 ± 69.06 ms
  Deactivation τ (-120 mV): 102.04 ± 18.32 ms
KV7.4; 10.00 μM
  activation curve V1/2: -40.62 ± 2.00 mV
KV7.4; 10 μM, Mean ± SE
  Activation τ (10 mV): 242.74 ± 34.66 ms
  Deactivation τ (-120 mV): 99.62 ± 18.87 ms
KV7.5; 10.00 μM
  activation curve V1/2: -56.77 ± 1.07 mV
KV7.5; 10 μM, Mean ± SE
  Activation τ (10 mV): 170.33 ± 16.42 ms
  Deactivation τ (-120 mV): 96.4 ± 14.98 ms
[1]; 1 mg/kg i.p.
  effect on epileptic behavior: could not rescue the epileptic behavior
  effect on EEG power spectral density: did not exhibit effects equivalent
[1]; 10 mg/kg i.p.
  effect on latency of seizures: significantly prolonged the latency of seizures
  effect on seizure grade: reduced the seizure grade
  effect on EEG power spectral density: significantly inhibited the increase in EEG power spectral density
